Measurements reported in patent US6706855B1, “Antimicrobial polymer” (Avecia Limited, priority 1999, dated 2004).

Experiments:
[1] = tested on: Pseudomonas aeruginosa NCIB 10421; assay: Minimum Inhibitory Concentration (MIC) against Pseudomonas aeruginosa; format: cell-based; conditions: Bacteria
Procedure: (§1) The Minimum Inhibitory Concentration (MIC) against a range of fungi and bacteria were determined for each of the antimicrobial copolymers prepared in Examples 1 to 4 and Comparative Example A. The MIC results are shown in Table 3: […]

[2] = tested on: Penicillium funiculosum IMI 114933; assay: Minimum Inhibitory Concentration (MIC) against Penicillium funiculosum; format: cell-based; conditions: Fungi
Procedure: as §1

[3] = tested on: a range of fungi and bacteria; assay: MIC against a range of fungi and bacteria, overall statement; format: cell-based; conditions: summary of Table 3; compared to Comparative Example A or to the copolymers
Procedure: as §1

[4] = tested on: Pseudomonas fluorescens (with Lux AB gene) our ref D481; assay: Minimum Inhibitory Concentration (MIC) against Pseudomonas fluorescens; format: cell-based; conditions: Bacteria
Procedure: as §1

[5] = tested on: Klebsiella pneumoniae ATCC 4352; assay: Minimum Inhibitory Concentration (MIC) against Klebsiella pneumoniae; format: cell-based; conditions: Bacteria
Procedure: as §1

[6] = tested on: Staphylococcus aureus NCIB 9518; assay: Minimum Inhibitory Concentration (MIC) against Staphylococcus aureus; format: cell-based; conditions: Bacteria
Procedure: as §1

[7] = tested on: Candida albicans NCYC 10231; assay: Minimum Inhibitory Concentration (MIC) against Candida albicans; format: cell-based; conditions: Fungi
Procedure: as §1

[8] = tested on: Bacillus subtilis NCIB 1650; assay: Minimum Inhibitory Concentration (MIC) against Bacillus subtilis; format: cell-based; conditions: Bacteria
Procedure: as §1

[9] = tested on: Escherichia coli NCIB 9132; assay: Minimum Inhibitory Concentration (MIC) against Escherichia coli; format: cell-based; conditions: Bacteria
Procedure: as §1

NCCCCCCNc1ccc2c3c(cccc13)C(=O)N(CCCCCCN)C2=O [Marker 1, N-(6-aminohexyl)-4-(6-aminohexylamino)-1,8-naphthalimide]
MIC Psa [1]: 999
MIC Pp [2]: 999
antimicrobial effect (MIC, in words) [3]: little or no antimicrobial effect
MIC Ps.fl [4]: 500
melting point: 113.6 to 114.9 °C
MIC K.pn [5]: 999
MIC Sa [6]: 32
MIC Ca [7]: 999
MIC Bs [8]: 500
MIC Ec [9]: 500
